Experimental data from US5439920A, “1,2,5,6-tetrahydropyridine derivative, process for preparing it and its applications in therapy” (Laboratoire L. Lafon, priority 1993, dated 1995).
Counter-ions that a name gives are not always drawn.

Experiments:
[1] = biological target: T1, α2 receptors of rat cerebral cortex (Rattus norvegicus, UniProt P22909); assay: Affinity for the α2 receptors of rat cerebral cortex ([^3 H]clonidine displacement); format: binding, Rats (male, CD1, Sprague-Dawley); details: rat cerebral cortex membranes, [^3 H]clonidine as marker
T1 construct: The cerebral cortex is immediately removed; from tissue; host or cells: rat cerebral cortex membranes
T1 sequence (P22909 1-465): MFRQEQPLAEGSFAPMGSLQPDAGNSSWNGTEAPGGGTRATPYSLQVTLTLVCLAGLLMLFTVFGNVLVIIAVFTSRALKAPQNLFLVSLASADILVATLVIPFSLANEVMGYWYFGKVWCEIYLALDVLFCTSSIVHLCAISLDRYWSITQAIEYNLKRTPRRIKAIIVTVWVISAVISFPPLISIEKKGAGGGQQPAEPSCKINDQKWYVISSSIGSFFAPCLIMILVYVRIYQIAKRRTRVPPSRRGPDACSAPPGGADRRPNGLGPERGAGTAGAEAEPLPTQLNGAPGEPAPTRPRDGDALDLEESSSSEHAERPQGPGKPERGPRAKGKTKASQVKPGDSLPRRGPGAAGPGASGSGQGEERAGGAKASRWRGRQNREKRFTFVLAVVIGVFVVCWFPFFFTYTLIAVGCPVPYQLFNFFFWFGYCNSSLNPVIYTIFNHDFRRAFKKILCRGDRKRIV
Procedure: Rats (male, CD1, Sprague-Dawley, 200-250 g) are sacrificed by decapitation. The cerebral cortex is immediately removed. The cerebral cortices of 4 rats are homogenized in 40 ml of buffer. The homogenates are centrifuged at 20,000 rpm for 15 minutes. The pellet is resuspended in 40 ml of buffer and subjected to a second centrifugation (20,000 rpm for 15 minutes). The pellet thereby obtained is suspended in 8 ml of buffer and then stored at -80° C. until used. On the day of the experiment, a membrane suspension is prepared from the frozen suspension. Aliquots of this membrane suspension are mixed with radioactive ligands (used as marker for each type of receptor) and with increasing concentrations of the test compound, and then incubated (final volume: 1 ml). Reaction is stopped by filtration through a 48-hole HARVESTER system (WHATMAN GF/B filter strip). The filter strip is then washed 3 times with 5 ml of buffer and thereafter placed in an automatic cutting system (BRANDEL). The cut filters fall into counting vials and 4 ml of scintillation fluid (Aquasafe 300, ZINSSER) are distributed automatically by the same system (BRANDEL). Each sample is subjected to counting of the radioactivity using a liquid scintillation counter (KONTRON). Three experimental series are carried out with the test compound, each experiment being carried out in duplicate. […]

spontaneous motility = assay: Action on spontaneous motility in mice; format: in vivo; details: Mus musculus, ip, 0.5 h, intraperitoneal, half an hour before test, motility recorded over 30 minutes, read-out: dose at and above which a significant decrease in locomotion is observed
Procedure: Half an hour after receiving the test compound intraperitoneally, the mice are placed in an activity-measuring device, where their motility is recorded over 30 minutes.

NMRI mice = assay: Pretoxicity in NMRI mice, intraperitoneal; format: in vivo; details: 3 animals per dose, IP, increasing doses 16-512 mg/kg
Procedure: Pretoxicity studies were performed in NMRI mice (3 animals per dose) with increasing doses of 16, 32, 64, 128, 256 and 512 mg/kg of products administered intraperitoneally. The dose causing the death of the three animals tested is given.

[2] = test system: intergroup aggressive behaviour; assay: Action on intergroup aggressive behaviour; format: in vivo; details: mice, half an hour after test compound, fights in 10 minutes
Procedure: After spending 3 weeks in each of the halves of a cage separated by an opaque partition, groups of 3 mice receive the test compound. Half an hour later, the two groups in the same cage are brought together by withdrawing the partition, and the number of fights occurring in the course of 10 minutes is noted.

α2 receptors = assay: Interaction with yohimbine in mice; format: in vivo

SMILES | IC50 [1] [nM] | minimal effective dose (spontaneous motility) [mg/kg] | dose causing the death of the three animals tested (NMRI mice) [mg/kg] | minimal effective dose ([2]; Mus musculus, 0.5 h, read-out: dose at and above which the number of fights is decreased) [mg/kg] | dose at which the number of fights is most particularly decreased [2] [mg/kg] | effect of yohimbine on hypothermia induced by the compound (α2 receptors; yohimbine 0.5 mg/kg i.p., compound 0.125 and 0.5 mg/kg i.p.) | effect of yohimbine on hypomotility induced by the compound (α2 receptors; yohimbine 1 mg/kg i.p., compound 0.5 and 2 mg/kg i.p.)
CC(C)N1CCC=C(c2ccccc2)C1 [CRL 41 244, N-isopropyl-3-phenyl-l,2,5,6-tetrahydropyridine, reference compound] | 700 | – | – | – | – | – | –
C1=C(c2ccccc2)CNCC1 [Example 1, 3-phenyl-l,2,5,6-tetrahydropyridine hydrochloride] | 26 | ≥ 0.032 | 128 | ≥ 0.032 | 0.125 | decreases the hypothermia | decreases the hypomotility
